# US12427157B2, “Methods for treatment of diseases involving acidic or hypoxic diseased tissues” (Cybrexa 1, Inc., priority 2018, dated 2025)
# Residues, ends and D or L forms follow the SMILES beside them. *: point of attachment. X23 = COC(=O)[C@@H](CS*)OC(=O)N(C)Cc1ccc(-c2[nH]c3cc(F)cc4c3c2CCNC4=O)cc1; X26 = C[C@H](COC(=O)N1CCC[C@@H](c2ccc(-n3cc4cccc(C(N)=O)c4n3)cc2)C1)S*; X25 = COC[C@@H](CS*)OC(=O)N(C)Cc1ccc(-c2[nH]c3cc(F)cc4c3c2CCNC4=O)cc1; X14 = C[C@@H](COC(=O)N1CCC[C@]1(C)c1nc2c(C(N)=O)cccc2[nH]1)S*; X18 = CNCc1ccc(-c2c3c4c(cc(F)cc4n2CNC(=O)OCCS*)C(=O)NCC3)cc1
# Molecular target: PARP (Homo sapiens, UniProt P09874)
# Sequence (P09874 whole entry): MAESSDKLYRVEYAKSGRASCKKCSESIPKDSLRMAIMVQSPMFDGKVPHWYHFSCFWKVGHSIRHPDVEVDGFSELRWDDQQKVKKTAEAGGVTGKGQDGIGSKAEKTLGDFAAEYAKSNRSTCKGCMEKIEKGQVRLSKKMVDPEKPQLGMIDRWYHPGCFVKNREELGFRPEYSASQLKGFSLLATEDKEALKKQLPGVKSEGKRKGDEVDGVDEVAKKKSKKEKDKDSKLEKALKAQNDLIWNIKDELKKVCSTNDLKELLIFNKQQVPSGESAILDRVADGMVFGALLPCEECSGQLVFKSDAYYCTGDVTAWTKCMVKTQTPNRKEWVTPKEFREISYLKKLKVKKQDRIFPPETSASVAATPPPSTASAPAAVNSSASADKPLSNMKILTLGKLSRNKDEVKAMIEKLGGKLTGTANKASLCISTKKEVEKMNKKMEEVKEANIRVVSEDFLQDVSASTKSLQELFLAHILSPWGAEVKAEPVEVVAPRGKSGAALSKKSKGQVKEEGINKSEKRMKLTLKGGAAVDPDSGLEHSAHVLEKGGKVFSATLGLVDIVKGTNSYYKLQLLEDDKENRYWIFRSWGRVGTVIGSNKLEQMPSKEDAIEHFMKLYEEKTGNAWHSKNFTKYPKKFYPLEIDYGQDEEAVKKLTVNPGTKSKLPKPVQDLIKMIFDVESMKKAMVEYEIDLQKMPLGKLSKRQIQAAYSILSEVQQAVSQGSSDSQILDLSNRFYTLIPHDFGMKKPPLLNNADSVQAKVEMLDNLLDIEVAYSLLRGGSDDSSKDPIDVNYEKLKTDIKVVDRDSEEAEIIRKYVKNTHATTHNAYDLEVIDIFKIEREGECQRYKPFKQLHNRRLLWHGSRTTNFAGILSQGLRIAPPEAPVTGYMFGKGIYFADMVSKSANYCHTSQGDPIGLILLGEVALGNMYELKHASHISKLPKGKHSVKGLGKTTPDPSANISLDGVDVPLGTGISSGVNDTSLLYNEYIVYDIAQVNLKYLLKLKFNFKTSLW
# Test: Enzymatic Assay 2: HT Universal Chemiluminescent PARP Assay of cleaved compounds;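 also: PARP reaction with activated DNA run 1 h at room temperature, product detected via streptavidin-HRP and luminescence endpoint reading on a plate reader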
# Settings: read-out: IC50 Enzymatic Assay 2; Examples cleaved per Example A (crude cleavage solution); R^8H starting materials as such
# Protocol: An equal volume of 1×PARP cocktail containing activated DNA was added to each well and the reaction was incubated for one hour at room temperature. The wells were washed twice with 1×PBS+0.1% Triton X-100 and twice with PBS. 50 ul/well of diluted streptavidin-HRP was added and the wells were incubated for one hour at room temperature. The wells were washed twice with 1×PBS+0.1% Triton X-100 and washed twice with PBS. The liquid was 5 removed, 100 ul/well 1:1 PeroxyGlow A/PeroxyGlow B was added and the chemiluminescent readings were measured on a BioTek Cytation 5 plate reader using the luminescence fiber endpoint.
row,SMILES,IC50 [nM]
1,CC(C)C[C@H](NC(=O)[C@H](Cc1ccc(O)cc1)NC(=O)[C@H](C)NC(=O)[C@H](CCCNC(=N)N)NC(=O)[C@H](Cc1c[nH]c2ccccc12)NC(=O)[C@@H]1CCCN1C(=O)[C@H](CC(N)=O)NC(=O)[C@H](CCC(N)=O)NC(=O)[C@H](CC(=O)O)NC(=O)[C@H](CC(=O)O)NC(=O)[C@H](C)N)C(=O)N[C@@H](CC(=O)O)C(=O)N[C@@H](CC(C)C)C(=O)N[C@@H](CC(C)C)C(=O)N[C@@H](Cc1ccccc1)C(=O)N1CCC[C@H]1C(=O)N[C@H](C(=O)N[C@@H](CC(=O)O)C(=O)N[C@H](C(=O)N[C@@H](CC(C)C)C(=O)N[C@@H](CC(C)C)C(=O)N[C@@H](CC(C)C)C(=O)N[C@@H](CC(=O)O)C(=O)N[C@@H](CC(C)C)C(=O)N[C@@H](CC(C)C)C(=O)N[C@@H](Cc1c[nH]c2ccccc12)C(=O)N[C@@H](CC(=O)O)C(=O)N[C@@H](C)C(=O)N[C@@H](CC(=O)O)C(=O)N[C@@H](CCC(=O)O)C(=O)N[C@@H](CSS[C@H](C)COC(=O)N1CCC[C@]1(C)c1nc2c(C(N)=O)cccc2[nH]1)C(=O)NCC(=O)O)[C@@H](C)O)[C@@H](C)O [Example 51],0.9
2,CC[C@H](C)[C@H](NC(=O)[C@@H]1CCCN1C(=O)[C@H](CC(N)=O)NC(=O)[C@H](CCC(N)=O)NC(=O)[C@H](CCC(=O)O)NC(=O)[C@H](C)N)C(=O)N[C@@H](Cc1ccc(O)cc1)C(=O)N[C@@H](Cc1c[nH]c2ccccc12)C(=O)N[C@@H](C)C(=O)N[C@@H](CCCNC(=N)N)C(=O)N[C@@H](Cc1ccc(O)cc1)C(=O)N[C@@H](C)C(=O)N[C@@H](CC(=O)O)C(=O)N[C@@H](Cc1c[nH]c2ccccc12)C(=O)N[C@@H](CC(C)C)C(=O)N[C@@H](Cc1ccccc1)C(=O)N[C@H](C(=O)N[C@H](C(=O)N1CCC[C@H]1C(=O)N[C@@H](CC(C)C)C(=O)N[C@@H](CC(C)C)C(=O)N[C@@H](CC(C)C)C(=O)N[C@@H](CC(C)C)C(=O)N[C@@H](CC(=O)O)C(=O)N[C@@H](CC(C)C)C(=O)N[C@@H](C)C(=O)N[C@@H](CC(C)C)C(=O)N[C@@H](CC(C)C)C(=O)N[C@H](C(=O)N[C@@H](CC(=O)O)C(=O)N[C@@H](C)C(=O)N[C@@H](CC(=O)O)C(=O)N[C@@H](CCC(=O)O)C(=O)N[C@@H](CSS[C@@H](C)COC(=O)N1CCC[C@]1(C)c1nc2c(C(N)=O)cccc2[nH]1)C(=O)NCC(=O)O)C(C)C)[C@@H](C)O)[C@@H](C)O [Example 55] (H-AEQNPIYWARYADWLFTTPLLLLDLALLVDADEC(X14)G-OH; N-terminus and C-terminus assumed),0.7
3,CC(C)C[C@H](NC(=O)[C@H](Cc1ccc(O)cc1)NC(=O)[C@H](C)NC(=O)[C@H](CCCNC(=N)N)NC(=O)[C@H](Cc1c[nH]c2ccccc12)NC(=O)[C@@H]1CCCN1C(=O)[C@H](CC(N)=O)NC(=O)[C@H](CCC(N)=O)NC(=O)[C@H](CC(=O)O)NC(=O)[C@H](CC(=O)O)NC(=O)[C@H](C)N)C(=O)N[C@@H](CC(=O)O)C(=O)N[C@@H](CC(C)C)C(=O)N[C@@H](CC(C)C)C(=O)N[C@@H](Cc1ccccc1)C(=O)N1CCC[C@H]1C(=O)N[C@H](C(=O)N[C@@H](CC(=O)O)C(=O)N[C@H](C(=O)N[C@@H](CC(C)C)C(=O)N[C@@H](CC(C)C)C(=O)N[C@@H](CC(C)C)C(=O)N[C@@H](CC(=O)O)C(=O)N[C@@H](CC(C)C)C(=O)N[C@@H](CC(C)C)C(=O)N[C@@H](Cc1c[nH]c2ccccc12)C(=O)N[C@@H](CC(=O)O)C(=O)N[C@@H](C)C(=O)N[C@@H](CC(=O)O)C(=O)N[C@@H](CCC(=O)O)C(=O)N[C@@H](CSS[C@H](C)COC(=O)N1CCC[C@@H](c2ccc(-n3cc4cccc(C(N)=O)c4n3)cc2)C1)C(=O)NCC(=O)O)[C@@H](C)O)[C@@H](C)O [Example 45],3.2
4,CC[C@H](C)[C@H](NC(=O)[C@@H]1CCCN1C(=O)[C@H](CC(N)=O)NC(=O)[C@H](CCC(N)=O)NC(=O)[C@H](CCC(=O)O)NC(=O)[C@H](C)N)C(=O)N[C@@H](Cc1ccc(O)cc1)C(=O)N[C@@H](Cc1c[nH]c2ccccc12)C(=O)N[C@@H](C)C(=O)N[C@@H](CCCNC(=N)N)C(=O)N[C@@H](Cc1ccc(O)cc1)C(=O)N[C@@H](C)C(=O)N[C@@H](CC(=O)O)C(=O)N[C@@H](Cc1c[nH]c2ccccc12)C(=O)N[C@@H](CC(C)C)C(=O)N[C@@H](Cc1ccccc1)C(=O)N[C@H](C(=O)N[C@H](C(=O)N1CCC[C@H]1C(=O)N[C@@H](CC(C)C)C(=O)N[C@@H](CC(C)C)C(=O)N[C@@H](CC(C)C)C(=O)N[C@@H](CC(C)C)C(=O)N[C@@H](CC(=O)O)C(=O)N[C@@H](CC(C)C)C(=O)N[C@@H](C)C(=O)N[C@@H](CC(C)C)C(=O)N[C@@H](CC(C)C)C(=O)N[C@H](C(=O)N[C@@H](CC(=O)O)C(=O)N[C@@H](C)C(=O)N[C@@H](CC(=O)O)C(=O)N[C@@H](CCC(=O)O)C(=O)N[C@@H](CSSC[C@H](COC)OC(=O)N(C)Cc1ccc(-c2[nH]c3cc(F)cc4c3c2CCNC4=O)cc1)C(=O)NCC(=O)O)C(C)C)[C@@H](C)O)[C@@H](C)O [Example 27] (H-AEQNPIYWARYADWLFTTPLLLLDLALLVDADEC(X25)G-OH; N-terminus and C-terminus assumed),3.9
5,CC[C@H](C)[C@H](NC(=O)[C@@H]1CCCN1C(=O)[C@H](CC(N)=O)NC(=O)[C@H](CCC(N)=O)NC(=O)[C@H](CCC(=O)O)NC(=O)[C@H](C)N)C(=O)N[C@@H](Cc1ccc(O)cc1)C(=O)N[C@@H](Cc1c[nH]c2ccccc12)C(=O)N[C@@H](C)C(=O)N[C@@H](CCCNC(=N)N)C(=O)N[C@@H](Cc1ccc(O)cc1)C(=O)N[C@@H](C)C(=O)N[C@@H](CC(=O)O)C(=O)N[C@@H](Cc1c[nH]c2ccccc12)C(=O)N[C@@H](CC(C)C)C(=O)N[C@@H](Cc1ccccc1)C(=O)N[C@H](C(=O)N[C@H](C(=O)N1CCC[C@H]1C(=O)N[C@@H](CC(C)C)C(=O)N[C@@H](CC(C)C)C(=O)N[C@@H](CC(C)C)C(=O)N[C@@H](CC(C)C)C(=O)N[C@@H](CC(=O)O)C(=O)N[C@@H](CC(C)C)C(=O)N[C@@H](C)C(=O)N[C@@H](CC(C)C)C(=O)N[C@@H](CC(C)C)C(=O)N[C@H](C(=O)N[C@@H](CC(=O)O)C(=O)N[C@@H](C)C(=O)N[C@@H](CC(=O)O)C(=O)N[C@@H](CCC(=O)O)C(=O)N[C@@H](CSS[C@H](C)COC(=O)N1CCC[C@@H](c2ccc(-n3cc4cccc(C(N)=O)c4n3)cc2)C1)C(=O)NCC(=O)O)C(C)C)[C@@H](C)O)[C@@H](C)O [Example 47] (H-AEQNPIYWARYADWLFTTPLLLLDLALLVDADEC(X26)G-OH; N-terminus and C-terminus assumed),2.4
6,CC[C@H](C)[C@H](NC(=O)[C@@H]1CCCN1C(=O)[C@H](CC(N)=O)NC(=O)[C@H](CCC(N)=O)NC(=O)[C@H](CCC(=O)O)NC(=O)[C@H](C)N)C(=O)N[C@@H](Cc1ccc(O)cc1)C(=O)N[C@@H](Cc1c[nH]c2ccccc12)C(=O)N[C@@H](C)C(=O)N[C@@H](CCCNC(=N)N)C(=O)N[C@@H](Cc1ccc(O)cc1)C(=O)N[C@@H](C)C(=O)N[C@@H](CC(=O)O)C(=O)N[C@@H](Cc1c[nH]c2ccccc12)C(=O)N[C@@H](CC(C)C)C(=O)N[C@@H](Cc1ccccc1)C(=O)N[C@H](C(=O)N[C@H](C(=O)N1CCC[C@H]1C(=O)N[C@@H](CC(C)C)C(=O)N[C@@H](CC(C)C)C(=O)N[C@@H](CC(C)C)C(=O)N[C@@H](CC(C)C)C(=O)N[C@@H](CC(=O)O)C(=O)N[C@@H](CC(C)C)C(=O)N[C@@H](C)C(=O)N[C@@H](CC(C)C)C(=O)N[C@@H](CC(C)C)C(=O)N[C@H](C(=O)N[C@@H](CC(=O)O)C(=O)N[C@@H](C)C(=O)N[C@@H](CC(=O)O)C(=O)N[C@@H](CCC(=O)O)C(=O)N[C@@H](CSSCCOC(=O)NCn1c(-c2ccc(CNC)cc2)c2c3c(cc(F)cc31)C(=O)NCC2)C(=O)NCC(=O)O)C(C)C)[C@@H](C)O)[C@@H](C)O [Example 33] (H-AEQNPIYWARYADWLFTTPLLLLDLALLVDADEC(X18)G-OH; N-terminus and C-terminus assumed),2.3
7,CC[C@H](C)[C@H](NC(=O)[C@@H]1CCCN1C(=O)[C@H](CC(N)=O)NC(=O)[C@H](CCC(N)=O)NC(=O)[C@H](CCC(=O)O)NC(=O)[C@H](C)N)C(=O)N[C@@H](Cc1ccc(O)cc1)C(=O)N[C@@H](Cc1c[nH]c2ccccc12)C(=O)N[C@@H](C)C(=O)N[C@@H](CCCNC(=N)N)C(=O)N[C@@H](Cc1ccc(O)cc1)C(=O)N[C@@H](C)C(=O)N[C@@H](CC(=O)O)C(=O)N[C@@H](Cc1c[nH]c2ccccc12)C(=O)N[C@@H](CC(C)C)C(=O)N[C@@H](Cc1ccccc1)C(=O)N[C@H](C(=O)N[C@H](C(=O)N1CCC[C@H]1C(=O)N[C@@H](CC(C)C)C(=O)N[C@@H](CC(C)C)C(=O)N[C@@H](CC(C)C)C(=O)N[C@@H](CC(C)C)C(=O)N[C@@H](CC(=O)O)C(=O)N[C@@H](CC(C)C)C(=O)N[C@@H](C)C(=O)N[C@@H](CC(C)C)C(=O)N[C@@H](CC(C)C)C(=O)N[C@H](C(=O)N[C@@H](CC(=O)O)C(=O)N[C@@H](C)C(=O)N[C@@H](CC(=O)O)C(=O)N[C@@H](CCC(=O)O)C(=O)N[C@@H](CSSC[C@@H](OC(=O)N(C)Cc1ccc(-c2[nH]c3cc(F)cc4c3c2CCNC4=O)cc1)C(=O)OC)C(=O)NCC(=O)O)C(C)C)[C@@H](C)O)[C@@H](C)O [Example 26] (H-AEQNPIYWARYADWLFTTPLLLLDLALLVDADEC(X23)G-OH; N-terminus and C-terminus assumed),2
8,CC(C)C[C@H](NC(=O)[C@H](Cc1ccc(O)cc1)NC(=O)[C@H](C)NC(=O)[C@H](CCCNC(=N)N)NC(=O)[C@H](Cc1c[nH]c2ccccc12)NC(=O)[C@@H]1CCCN1C(=O)[C@H](CC(N)=O)NC(=O)[C@H](CCC(N)=O)NC(=O)[C@H](CC(=O)O)NC(=O)[C@H](CC(=O)O)NC(=O)[C@H](C)N)C(=O)N[C@@H](CC(=O)O)C(=O)N[C@@H](CC(C)C)C(=O)N[C@@H](CC(C)C)C(=O)N[C@@H](Cc1ccccc1)C(=O)N1CCC[C@H]1C(=O)N[C@H](C(=O)N[C@@H](CC(=O)O)C(=O)N[C@H](C(=O)N[C@@H](CC(C)C)C(=O)N[C@@H](CC(C)C)C(=O)N[C@@H](CC(C)C)C(=O)N[C@@H](CC(=O)O)C(=O)N[C@@H](CC(C)C)C(=O)N[C@@H](CC(C)C)C(=O)N[C@@H](Cc1c[nH]c2ccccc12)C(=O)N[C@@H](CSSc1ccc(COC(=O)N(C)Cc2ccc(-c3[nH]c4cc(F)cc5c4c3CCNC5=O)cc2)cc1)C(=O)NCC(=O)O)[C@@H](C)O)[C@@H](C)O [Example 36],2.2
